{
  "source": "patent US11850233B2",
  "about": "“Reduced adaptive microbial resistance treatment for flesh eating disease (necrotizing fasciitis)” (priority 2019, dated 2023)",
  "key": {"[1]": {"test_system": "E. coli (BL21) bacteria", "experiment": "In vitro inhibition of E. coli (BL21) growth on LB agar plates, dark or irradiated", "assay_type": "cell-based", "from_the_text": "E. coli (BL21) bacteria was used as a model prokaryote to determine the efficacy of the inventive treatment composition to kill bacteria. The effect of inventive composition as well as each individual component of the composition were all tested to determine the effect each on the growth of E. coli bacteria. The procedure described in Herschmann, R. J. et al (2019) “Effect of toxic metal ions on photosensitized singlet oxygen generation for photodegradation of polyaromatic hydrocarbon derivatives and inactivation of Escherichia coli” Photochemistry and Photobiology 86, 890-894, was followed. The bacterial cultures were grown in an incubator in Luria-Broth (LB)—Lennox formulation at 28° C. with shaking at 250 rpm. Once the cells reached the beginning of their exponential growth phase (A600=0.2), one milliliter aliquots were removed and centrifuged. The resulting pellets were washed once with sterile water and then resuspended in 500.0 μL of sterile water. The resuspended bacteria were mixed with 200.0 μL of stock solutions of the components or the multifunctional was selected for testing at 0.3 ppm for all components of the composition. The experimental samples were irradiated in a Rayonet photoreactor for 10 minutes or covered and kept in the dark for 10 minutes. Controls were prepared using 200.0 μL of sterile water were also prepared with one control being irradiated and the other control being kept in the dark. All samples were then briefly vortexed to thoroughly mix samples, and 20.0 μL aliquots of each sample were evenly spread using standard techniques over individual LB agar petri dishes. The plates were inverted and incubated at 28° C. for 48 hours. Results are reported as observed effects of the composition and each component of the composition on the inhibition of the growth of E. coli on the plates."}, "[2]": {"test_system": "MCF-7 breast cancer cells", "experiment": "MTS assay of MCF-7 breast cancer cell proliferation, dark or irradiated", "assay_type": "cell-based", "conditions": "aerobic, 0.3 ppm, after 48 hours", "method": "For breast cancer cells experiment, a stored sample was taken and incubated for 3 to 5 minutes until room temperature. 5 mL of supplemented medium was placed in a 15 mL centrifuge tube. The contents in the cryotube were transferred into the 15 mL centrifuge tube containing the 5 mL medium. This mixture was centrifuged for 5 minutes at 1000 rpm. The supernatant was removed, and 3 mL of the medium was added to the cells and mixed thoroughly. From this mixture, 1 mL was placed into three separate culture flasks with 11 mL of medium each. These flasks were placed in a humidified atmosphere of 32° C. and 5% CO2. After incubation, cells were rinsed with PBS and aspirated. Cells were washed with trypsin, covered and placed in the incubator for five minutes. Solutions were then mixed with 4 mL of medium and subsequently transferred into a 15 mL centrifuge tube to be centrifuged for 5 minutes at 1000 rpm. The supernatant was then aspirated, and cells were re-suspended in 3-10 mL of medium. From here, 1 mL aliquots of this mixture were placed with 11 mL of medium in a new flask. Lastly, these flasks were placed in humidified atmosphere of 32° C. and 5% CO2. An aliquot of the stock solution (i.e. 9.5 mL) was removed from the stock culture and combined with an appropriate amount of regular medium (i.e. 220.5 mL). After proper mixing the stock with fresh media, 3 mL of the mixture were placed in each of the wells in a 6-well plate. Using the manufacturer's protocol, a MTS assay was performed to assess cell proliferation and toxicity of the multifunctional treatment composition. The concentrations of inventive treatment composition and its individual components were 0.3 ppm, until adjusted. The proliferation(s) of cells were compared to a control of cells alone. The growth the control was standardized as 100% growth and the cell proliferation in the presence of the treatment composition was observed and reported on the bases of percent when compared to the control. Similar procedure was followed for light experiment where samples were irradiated in a Rayonet photoreactor for 10 minutes."}, "[3]": {"conditions": "known value of the standard, prior art; cited from earlier work"}, "[4]": {"test_system": "E. coli (BL21) bacteria", "conditions": "cited from earlier work"}, "[5]": {"experiment": "Rate of DHN photooxidation under visible light irradiation (absorption at 300 nm)", "assay_type": "physicochemical", "conditions": "Zinc (II) 0.000 ppm, TMPyP 3.67×10^−7 M, DHN 1.2×10^−4 M, aerobic aqueous", "method": "Quartz cuvettes with 1 cm path-length and 3.0 mL volume were used for all measurements.\nFor singlet oxygenation experiment, a 3.0 mL solution of DHN (1.2×10^−4 M) and TMPyP (3.67×10^−7 M) was prepared by mixing 36 μL of 1×10^−2 M of DHN standard solution and 1.10 μL of 1×10^−3 M of TMPyP standard solution with ultrapure water at room temperature in an open atmosphere. Singlet oxygenation of sample was conducted in a Rayonet photoreactor for approximately 10 min at 28° C. and the photooxidation of DHN was monitored by recording a decrease in UV-Vis absorption of DHN at 300 nm for 10 min in 2 min intervals."}, "[6]": {"conditions": "dark, aerobic, 0.3 ppm (Example 1 composition: Zn(II) 0.15 ppm + TMPyP 0.15 ppm), 10 minutes, plates after 48 hours"}, "[7]": {"conditions": "visible light irradiation 10 minutes, aerobic, 0.3 ppm (composition: Zn(II) 0.15 ppm + TMPyP 0.15 ppm), plates after 48 hours"}},
  "note": "“Also recorded” adds a separate entry of the source. Structures can show the parent of a compound that is named as a salt. Where two headings read alike, the source gives them in different places.",
  "data": [
    {"compound": "[Fe+2]", "note": "[Iron(II)]", "values": [
      {"measurement": "inhibition of growth of E. coli", "setting": "[1]; [6]", "value": "zero inhibition"},
      {"measurement": "inhibition of growth of E. coli", "setting": "[1]; [7]", "value": "zero inhibition"}
    ]},
    {"compound": "[Co+2]", "note": "[cobalt (II)]", "values": [
      {"measurement": "inhibition of growth of E. coli", "setting": "[1]", "value": "zero inhibition"}
    ]},
    {"compound": "[Zn+2]", "note": "[Zn(II) ions, zinc (II) sulfate]", "values": [
      {"measurement": "inhibition of growth of MCF-7 breast cancer cells", "setting": "[2]; dark", "value": "no inhibition effect"},
      {"measurement": "inhibition of growth of MCF-7 breast cancer cells", "setting": "[2]; visible light irradiation", "value": "little or no inhibition effect"},
      {"measurement": "inhibition of growth of E. coli", "setting": "[1]", "value": "essentially no noticeable inhibition; also recorded: almost no inhibition"}
    ]},
    {"compound": "CN(C)c1ccc2nc3ccc(=[N+](C)C)cc-3sc2c1", "note": "[methylene blue]", "values": [
      {"measurement": "singlet oxygen quantum yield (ϕΔ)", "setting": "[3]", "value": 0.52}
    ]},
    {"compound": "meso-tetrakis(N-methyl-4-pyridyl) porphyrin with Zn metal stably bound into the core of porphyrin [ZnTMPyP]", "values": [
      {"measurement": "inhibition of growth of E. coli", "setting": "[1]; [6]", "value": "almost no inhibition"},
      {"measurement": "inhibition of growth of E. coli", "setting": "[1]; [7]", "value": "inhibition of growth"},
      {"measurement": "E. coli killing / growth inhibition reported earlier", "setting": "[4]; dark conditions, tests by others or PCT/US2018/024338", "value": "not effective"}
    ]},
    {"compound": "CC1(C)S[C@@H]2[C@H](NC(=O)[C@H](N)c3ccccc3)C(=O)N2[C@H]1C(=O)O", "note": "[ampicillin, Ampicillin]", "values": [
      {"measurement": "inhibition of growth of E. coli", "setting": "[1]; [6]", "value": "Almost no inhibition"}
    ]},
    {"compound": "O=C(N[C@H](CO)[C@H](O)c1ccc([N+](=O)[O-])cc1)C(Cl)Cl", "note": "[chloramphenicol, Chloramphenicol]", "values": [
      {"measurement": "inhibition of growth of E. coli", "setting": "[1]; [6]", "value": "Almost no inhibition"}
    ]},
    {"compound": "C[n+]1ccc(-c2c3nc(c(-c4cc[n+](C)cc4)c4ccc([nH]4)c(-c4cc[n+](C)cc4)c4nc(c(-c5cc[n+](C)cc5)c5ccc2[nH]5)C=C4)C=C3)cc1.[Cl-].[Cl-].[Cl-].[Cl-]", "note": "[TMPyP, meso-tetra(N-methyl-4-pyridyl) porphyrin tetrachloride]", "values": [
      {"measurement": "inhibition of growth of MCF-7 breast cancer cells", "setting": "[2]; dark", "value": "almost no inhibition"},
      {"measurement": "inhibition of growth of MCF-7 breast cancer cells", "setting": "[2]; visible light irradiation", "value": "nearly complete inhibition"},
      {"measurement": "inhibition of growth of E. coli bacteria", "setting": "[1]", "value": 100, "unit": "%"},
      {"measurement": "E. coli growth inhibition reported by others", "setting": "[4]; light, aerobic conditions, Khurana et al 2019", "value": "inhibits E. coli growth"},
      {"measurement": "Rate Constant, k of DHN photooxidation", "setting": "[5]", "value": 0.0001601, "unit": "s⁻¹"}
    ]},
    {"compound": "[Mn+2]", "note": "[manganese(II)]", "values": [
      {"measurement": "inhibition of growth of E. coli", "setting": "[1]; [6]", "value": "zero inhibition"},
      {"measurement": "inhibition of growth of E. coli", "setting": "[1]; [7]", "value": "zero inhibition"}
    ]}
  ]
}
